Measurements: patent publication US5789447A, “Nitric oxide releasing compounds as protective agents in ischemia reperfusion injury” (priority 1995, dated 1998)
Entries after “also recorded” stand apart in the source; their conditions may differ.

Assays:
[1] = system: Chinese hamster V79 lung fibroblasts; assay: V79 clonogenic survival, hypoxanthine/xanthine oxidase (HX/XO) cytotoxicity
Experimental: Chinese hamster V79 lung fibroblasts were cultured in F12 medium supplemented with 10% fetal calf serum and antibiotics. Cell survival was assessed by clonogenic assay with 85-95% plating efficiency. Stock cultures of exponentially growing cells were trypsinized, rinsed, and plated (7×10^5 cells/dish) into a number of 100 cm^2 petri dishes and incubated 16 hr at 37° C. prior to experimental protocols.
It has been shown that exposure of V79 cells to hydrogen peroxide results in dose-dependent cytotoxicity (Mitchell et al., supra).
HX and XO were purchased from Boehringer Co. (Indianapolis, Ind.). Nitrite, diethylamine, sulfinamide, diethylenetriaminepentaacetic acid (DETAPAC) and N-(1-naphthyl)ethylenediaminedihydrogenchloride (NEDD) were purchased from Aldrich (Milwaukee, Wis.). Cytosine-β-D-arabinofuranoside and ferricytochrome c were purchased from Sigma (St. Louis, Mo.). DEA/NO and SPER/NO were synthesized as previously described (Maragos et al., (1991), supra).
Exponentially growing cultures of Chinese hamster V79 fibroblasts were exposed to either HX/XO (final concentration of HX was 0.5 mM; 0.08 units/ml XO were used) for various amounts of time (FIG. 1A) or to various concentrations of hydrogen peroxide for one hour (FIG. 1B). […] Additionally, 1 mM DEA/NO was added to medium in the absence of cells, incubated at 37° C. for 1 hr or 16 hrs, and then added just prior to the addition of hydrogen peroxide to evaluate the effects of DEA/NO which had released NO. After treatment, cell monolayers were rinsed twice with phosphate-buffered saline (PBS), trypsinized, counted and plated in triplicate for macroscopic colony formation. Each dose determination was plated in triplicate and experiments were repeated a minimum of two times. Plates were incubated for 7 days, after which colonies were fixed with methanol/acetic acid (3:1), stained with crystal violet, and counted. Colonies containing more than 50 cells were scored.

[2] = system: Chinese hamster V79 lung fibroblasts; assay: V79 clonogenic survival, hydrogen peroxide cytotoxicity; assay type: cell-based
Source text: Colonies containing more than 50 cells were scored.

XO [3] = molecular target: T1, XO (Bos taurus, UniProt P80457); assay: XO activity by superoxide-induced reduction of ferricytochrome c; assay type: biochemical
T1 sequence (P80457 whole entry): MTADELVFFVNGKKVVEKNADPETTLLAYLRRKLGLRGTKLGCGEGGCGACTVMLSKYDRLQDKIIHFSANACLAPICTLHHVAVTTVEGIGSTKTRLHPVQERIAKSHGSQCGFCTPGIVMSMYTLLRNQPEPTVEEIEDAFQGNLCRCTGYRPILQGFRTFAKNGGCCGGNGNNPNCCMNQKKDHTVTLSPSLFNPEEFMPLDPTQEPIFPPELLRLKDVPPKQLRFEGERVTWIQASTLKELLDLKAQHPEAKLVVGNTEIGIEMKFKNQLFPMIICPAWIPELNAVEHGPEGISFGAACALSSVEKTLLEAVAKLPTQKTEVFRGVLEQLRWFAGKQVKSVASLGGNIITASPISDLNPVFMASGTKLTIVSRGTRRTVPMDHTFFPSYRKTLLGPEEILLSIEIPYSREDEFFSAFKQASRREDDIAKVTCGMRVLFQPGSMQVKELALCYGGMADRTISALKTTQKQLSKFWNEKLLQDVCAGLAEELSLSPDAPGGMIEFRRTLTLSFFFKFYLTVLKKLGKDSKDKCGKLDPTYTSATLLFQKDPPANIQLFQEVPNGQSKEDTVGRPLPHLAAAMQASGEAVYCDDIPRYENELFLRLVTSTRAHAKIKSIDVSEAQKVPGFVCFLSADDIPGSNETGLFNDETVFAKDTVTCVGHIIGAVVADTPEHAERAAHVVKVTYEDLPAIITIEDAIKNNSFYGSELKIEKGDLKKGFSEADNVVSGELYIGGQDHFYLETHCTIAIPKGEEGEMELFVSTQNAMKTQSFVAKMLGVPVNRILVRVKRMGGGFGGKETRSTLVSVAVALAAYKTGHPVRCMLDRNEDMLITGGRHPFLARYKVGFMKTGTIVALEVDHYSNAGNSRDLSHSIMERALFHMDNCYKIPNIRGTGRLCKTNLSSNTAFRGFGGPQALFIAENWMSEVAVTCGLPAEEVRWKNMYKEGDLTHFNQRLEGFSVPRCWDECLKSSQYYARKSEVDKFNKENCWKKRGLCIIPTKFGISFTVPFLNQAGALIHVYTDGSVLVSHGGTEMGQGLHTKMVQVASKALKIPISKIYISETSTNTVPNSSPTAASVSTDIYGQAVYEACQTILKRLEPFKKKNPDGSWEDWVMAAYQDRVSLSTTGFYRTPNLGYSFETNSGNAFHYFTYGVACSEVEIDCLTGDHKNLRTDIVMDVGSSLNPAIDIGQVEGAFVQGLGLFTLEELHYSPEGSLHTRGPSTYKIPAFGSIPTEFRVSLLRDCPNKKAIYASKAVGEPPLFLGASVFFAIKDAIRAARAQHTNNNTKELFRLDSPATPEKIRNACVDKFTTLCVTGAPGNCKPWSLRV
Experimental: (§1) The activity of XO was monitored in the absence and presence of 1 mM DEA/NO by two different assays. Superoxide-induced reduction of ferricytochrome c to ferrocytochrome c was monitored spectrophotometrically at 550 nm (Fridovich, Handbook of Method for Oxygen Radical Research, pages 213-215 (1985)). The reaction was carried out in a 1 ml volume in aerated phosphate buffer (pH 7.8, 50 mM) containing 50 μM DETAPAC. HX was maintained at 2.5 mM and ferricytochrome c at 20 μM. The reactions were initiated with the addition of XO (final concentration of 0.2 units/ml). The activity of XO in the absence and presence of 1 mM DEA/NO was directly monitored by measuring the production of uric acid spectrophotometrically at 305 nm for 10 min under the same conditions but in the absence of ferricytochrome c. All enzymatic assays and chemical reactions were done at 37° C.

XO [4] = molecular target: T1, XO; assay: XO activity by uric acid production at 305 nm; assay type: biochemical
Experimental: as §1

[5] = Chemical controls: DEA/NO or NO with hydrogen peroxide; assay type: physicochemical; conditions: presence of 1 mM hydrogen peroxide
Experimental: Anaerobic solutions of 1 mM hydrogen peroxide in 10 mM phosphate buffer, pH 7.4, were mixed with 1 mM NO. […] The rate of decomposition of DEA/NO was unaffected by the presence of 1 mM hydrogen peroxide; likewise, hydrogen peroxide was not consumed by DEA/NO or intermediates of the DEA/NO decomposition reaction as measured by the production of I3^- (Hochanadel, J. Phys. Chem., 56, 587-594 (1952)).

[6] = system: ventral mesencephalic cells; assay: [3H]dopamine uptake after hydrogen peroxide or HX/XO exposure; assay type: cell-based, Sprague Dawley rats
Experimental: (§2) The ventral tegmental mesencephalon was dissected from 14 day old embryos (precisely timed pregnant Sprague Dawley rats; Zivic-Miller, Allison Park, Pa.) under sterile conditions and mechanically dissociated into complete culture medium. The culture medium consisted of a 1:1 mixture of modified minimum essential medium and nutrient mixture F-12 supplemented with 6 mg/ml D-gluose, 2 mM glutamine, 0.5 U/ml penicillin G, 0.5 mg/ml streptomycin (all from Gibco, Grand Island, N.Y.) and 15% equine serum (Hyclone, Logan, Utah). Cells were plated into multiwell plates that were previously coated with poly-D-lysine (15 μg/ml) and laminin (10 μg/ml) at a density of 40,000 cells/cm^2 (Costar). The cells were maintained for 5-7 days at 37° C. in an atmosphere of 95% air and 5% CO2 saturated with H2 O. On the fifth day of culture 1 μM cytosine-β-D-arabinofuranoside was added to inhibit glial cell growth.
Uptake of dopanine by dopaminergic neurons was assayed as follows. The cells in each well were washed three times with 1 ml PBS containing 6 mg/ml glucose and thereafter Dulbecco's modified essential medium (Quality Biological, Inc., Farmingham, Mass.) containing 6 mg/ml D-glucose, 50 μM ascorbic acid, and 5×10^-8 M [^3 H]dopamine (NEN, Boston, Mass.; specific activity of […]) was added and incubated for 15 min at 37° C. [^3 H]dopamine uptake was stopped by aspirating the incubation solution and washing the cells three times with ice-cold PBS containing 6 mg/ml D-glucose. The cells were removed by washing the wells with an equal volume of 0.2N NaOH and 0.2N HCl containing 0.02% Triton X-100. The residual intracellular radioactivity in the cells was determined by scintillation spectroscopy.
Accordingly, ventral mesencephalic cell cultures were exposed to 100 μM H2 O2 for 1 hr in the presence and absence of 100 μM DEA/NO and evaluated for their ability to take up dopamine.
In a separate study, cells were cultured for 7 days and then exposed to 50 or 100 μM hydrogen peroxide for 60 min or to 0.04 units/ml HX/XO for 5 or 10 min in the absence or presence of 100 μM DEA/NO. The cells were washed with PBS containing 6 g/l D-glucose, culture medium was added, and the cells were incubated for 18 hr. The ability of the cells (6 wells of 450,000 cells/well per group) to take up ^3 [H]-dopamine was measured. These cells were exposed to ten times less hydrogen peroxide or HX/XO than the V79 cells described above.

mesencephalic neurons = assay: Morphology of mesencephalic neurons (neurites and somas); assay type: cell-based, Sprague Dawley rats
Experimental: as §2
When cells were exposed to hydrogen peroxide for 1 hr, varicosities formed in the neurites and somas swelled. Exposure to HX/XO for as short as 5 min elicited similar morphological changes in mesencephalic neurons.

neuronal cell death = conditions: Lafon-Cazal et al.; cited from earlier work
NMDA receptor = conditions: U.S. Pat. No. 5,234,956; cited from earlier work
platelet aggregation = conditions: Rubanyi et al.; cited from earlier work
[7] = system: endothelial cell monolayers; conditions: Radomski et al.; cited from earlier work
[8] = system: Leukocyte-endothelial cell adhesive interactions; conditions: postcapillary venules; Kubes et al. 1991; cited from earlier work
[9] = system: Primary neuronal cell cultures; conditions: as high as 1 mM; cited from earlier work
[10] = Kanner et al.; cited from earlier work
[11] = Saran et al. 1990; cited from earlier work
lung tissue = conditions: high concentrations in the gas phase; cited from earlier work
[12] = 100 μM with hydrogen peroxide or HX/XO

CCN(CC)/[N+]([O-])=N/[O-].[Na+] [DEA/NO]
protection against HX/XO-induced cell killing ([1]; 0.1 mM): marginal protection | protection against HX/XO-induced cell killing ([1]; 1 mM): significantly protected against cell killing | protection against hydrogen peroxide cytotoxicity ([2]; 1 mM, added just prior to hydrogen peroxide, 1 hr exposure): nearly complete protection | protection against hydrogen peroxide cytotoxicity ([2]; 1 mM, allowed to release NO for 1 hr prior to hydrogen peroxide): only modest protection | effect on hydrogen peroxide cytotoxicity ([2]; 1 mM, incubated 16 hr in medium prior to hydrogen peroxide): enhanced the cytotoxicity of hydrogen peroxide | effect of treatment after hydrogen peroxide ([2]; 1 hr hydrogen peroxide followed by 1 hr treatment with 1 mM): did not treat oxygen free radical mediated tissue damage | inhibition of XO activity, production of superoxide (cytochrome c reduction) (XO [3]; 1 mM, preincubated with HX/XO): did not inhibit the activity of XO | SOD sensitive ferricytochrome c reduction (XO [3]; presence of DEA/NO): quenching; also recorded: inhibited | inhibition of XO activity, uric acid production (XO [4]; 1 mM, preincubated with HX/XO): did not inhibit the activity of XO | uric acid production (UV 305 nm) / XO substrate turnover (XO [4]; presence of DEA/NO): not inhibited; also recorded: nor affect XO substrate turnover | rate of decomposition / rate of formation of NO [5]: not altered; also recorded: unaffected | [3H] Dopamine Uptake ([6]; 100 μM DEA/NO with 50 μM H2O2, 60 min): 2.8 ± 0.11 pmol/well/15 min | [3H] Dopamine Uptake ([6]; 100 μM DEA/NO with 100 μM H2O2, 60 min): 2.6 ± 0.22 pmol/well/15 min | [3H] Dopamine Uptake ([6]; 100 μM DEA/NO with 0.04 U/ml HX/XO, 5 min): 2.6 ± 0.15 pmol/well/15 min | [3H] Dopamine Uptake ([6]; 100 μM DEA/NO with 0.04 U/ml HX/XO, 10 min): 2.3 ± 0.10 pmol/well/15 min | [3H] Dopamine Uptake ([6]; 100 μM DEA/NO, no addition (None)): 2.7 ± 0.11 pmol/well/15 min | protection of dopamine uptake [6, 12]: complete protection | retained function (dopamine uptake) ([6]; hydrogen peroxide in presence of DEA/NO (100 μM, 1 hr), FIG. 3): ~100% | morphological changes (mesencephalic neurons; 100 μM alone, 1 hr): failed to cause morphological changes | abnormalities in the neurites and somas (mesencephalic neurons; [12]): did not demonstrate abnormalities in the neurites and somas

CC1(C)CCC=[N+]1[O-] [DMPO]
reduction of neuronal cell death (neuronal cell death): more efficiently than the nitric oxide synthase inhibitor L-N-nitroarginine

O=[N+]([O-])OCC(CO[N+](=O)[O-])O[N+](=O)[O-] [nitroglycerin]
NMDA receptor-mediated neuronal damage (NMDA receptor): reduce NMDA receptor-mediated neuronal damage

nitric oxide [NO]
platelet aggregation (platelet aggregation): block platelet aggregation | platelet adhesion to endothelial cell monolayers [7]: reduce platelet adhesion to endothelial cell monolayers | leukocyte-endothelial cell adhesive interactions [8]: inhibited | adverse effects in primary neuronal cell cultures [9]: no adverse effects | quenching of Fenton-type oxidation [10]: could quench Fenton-type oxidation | reaction rate constant for NO and O2 [11]: 5.6×10^7 M^-1 S^-1 | lung tissue damage (lung tissue): damages lung tissue
